Consider 1 compound from patent publication US20210370019A1, “Method of Treatment Using Negative Pressure Renal Therapy and Medicament(s)” (Strataca Systems Limited, priority 2020, published 2021).

For test [1], the system named is animal model of hypervolemic tamponade.
Test [2] has as its system congestion heart failure (HF) model. The following applies: for diuresis / natriuresis: furosemide diuresis, No-HF; for filtration fraction: furosemide infusion.
For test [3] the following is noted: cited from earlier work.

SMILES strings stand for the structures. Where two headings read alike, the source gives them in different places.

As to `NS(=O)(=O)c1cc(C(=O)O)c(NCc2ccco2)cc1Cl` [furosemide], the “decrease in urine output” value in test [1] (tamponade (CVP approx. 20 mm Hg), continued presence of furosemide, compared to mild congestion state of saline loading) is −35%. In addition, the “increase in urine output” value in test [1] (tamponade, negative pressure (−30 mm Hg) in combination with furosemide, beyond the use of diuretics alone) was “+67%”. Besides, the values for the diuresis in test [2] (control kidney (no rNPT)) and in test [2] (rNPT kidney (−30 mmHg)) were 11.8 ± 3.7 mL/min and 19.7 ± 4.5 mL/min, respectively. For the same compound, the natriuresis in test [2] (control kidney (no rNPT)) was found to be 1.5 ± 0.5 mmol/min; in test [2] (rNPT kidney (−30 mmHg)), 2.4 ± 0.6 mmol/min. The filtration fraction worked out at 55.6±24.8% in test [2] (during rNPT (similar effect between HF and no HF periods)); 49.0±20.8% in test [2] (without rNPT). In test [3] (furosemide administration, as reported), the “increase in renal interstitial pressure” value is listed as roughly 7 mmHg. In test [3] (known effect of furosemide), the “effect on GFR” value was “can reduce GFR”.
